Measurements taken from patent US5364942A, “Sulphonylbenzyl-substituted imidazopyridines” (Bayer Aktiengesellschaft, priority 1992, dated 1994).

How the values were obtained:
smooth muscle cells = assay: Inhibition of proliferation of smooth muscle cells (3H-thymidine incorporation); assay type: cell-based; details: 10^-6 M, smooth muscle cells from aortas of rats or pigs
Experimental: Smooth muscle cells obtained from the aortas of rats or pigs by the media explantate technique [R. Ross, J. Cell. Biol. 50, 172, 1971] are used to determine the antiproliferative action of the compounds.
The cells are sown in suitable culture dishes, as a rule 24-hole plates, and cultured for 2-3 days in medium 199 with 7.5% of FCS and 7.5% of NCS, 2 mM L-glutamine and 15 mM HEPES, pH 7.4, in 5% CO2 at 37° C. The cells are then synchronised for 2-3 days by withdrawal of the serum, and subsequently stimulated into growth with AII, serum or other factors. Test compounds are added at the same time. […]

[1] = system: angiotensin II-induced contraction of the isolated rabbit aorta; assay: Inhibition of angiotensin II-induced vascular contraction on isolated aortic rings of the rabbit in vitro; assay type: cell-based; details: Oryctolagus cuniculus, agonist angiotensin II, effect at 3rd = submaximal agonist concentration, read-out: IC50 against contractions induced by: AII
Experimental: Rabbits of both sexes are stunned by a blow to the neck and exsanguinated, or in some cases anaesthetised with Nembutal (about 60-80 mg/kg i.v.) and sacrificed by opening the thorax. The thoracic aorta is removed, freed from attached connective tissue and divided into ring segments 1.5 mm wide, and the segments are introduced individually, under an initial load of about 3.5 g, in 10 ml organ baths containing carbogen-gassed Krebs-Henseleit nutrient solution thermostatically controlled at 37° C. and having the following composition: 119 mmol/l of NaCl; 2.5 mmol/l of CaCl2 ×2H2 O; 1.2 mmol/l of KH2 PO4; 10 mmol/l of glucose; 4.8 mmol/l of KCl; 1.4 mmol/l of MgSO4 ×7H2 O and 25 mmol/l of NaHCO3.
The contractions are recorded isometrically by Statham UC2 cells via bridged amplifiers (ifd Mulheim or DSM Aalen) and are digitised and evaluated by means of an A/D converter (System 570, Keithley Munich). The agonist dose/effect curves (DEC) are plotted hourly. With every DEC, 3 or 4 individual concentrations are applied to the baths at intervals of 4 minutes. The end of the DEC and subsequent wash-out cycles (16 times for in each case about 5 seconds/minute with the above nutrient solution) is followed by a 28-minute rest or incubation phase, during which the contractions as a rule reach the starting value again.
The level of the third DEC in the normal case is used as the reference parameter for evaluation of the test substance which is to be investigated in subsequent passes and is applied to the baths for the following DECs at the start of the incubation time at a dosage which increases each time. Each aortic ring is stimulated over the whole day with always the same agonist.
(§1) ______________________________________
Agonists and their standard concentrations (Application
volume per individual dose = 100 μl):
as §1
For calculation of the IC50 (concentration at which the substance under investigation causes 50% inhibition), the particular effect at the 3rd=submaximal agonist concentration is taken as the basis.

angiotensin II receptor = target: T1, angiotensin II receptor (Bos taurus, UniProt P25104); assay: Interaction with the angiotensin II receptor on membrane fractions of the adrenal cortex; assay type: binding, cattle; details: bovine adrenal cortex membranes; 3H-angiotensin II (3-5 nM); 60 minutes at room temperature
T1 construct: partly purified membrane fractions of bovine AC with radioactive angiotensin II; from tissue; host or cells: bovine adrenal cortex, partly purified membrane fractions
T1 sequence (P25104 1-359): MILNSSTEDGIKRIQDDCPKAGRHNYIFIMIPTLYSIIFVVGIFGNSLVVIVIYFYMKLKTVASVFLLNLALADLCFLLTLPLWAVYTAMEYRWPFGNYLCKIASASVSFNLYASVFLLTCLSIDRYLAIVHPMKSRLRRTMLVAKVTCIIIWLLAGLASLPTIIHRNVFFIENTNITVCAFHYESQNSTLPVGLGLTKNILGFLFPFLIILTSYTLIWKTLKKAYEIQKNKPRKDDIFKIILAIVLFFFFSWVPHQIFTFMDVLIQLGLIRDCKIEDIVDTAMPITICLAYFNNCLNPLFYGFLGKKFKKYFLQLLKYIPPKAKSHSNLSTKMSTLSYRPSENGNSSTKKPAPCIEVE
Experimental: Adrenal cortices from cattle (AC), which are freshly removed and carefully freed from medulla of the capsule, are comminuted to a coarse membrane homogenate in sucrose solution (0.32M) with the aid of an Ultra-Turrax (Janke & Kunkel, Staufen i.B.), and the homogenate is partly purified to membrane fractions in two centrifugation steps.
The investigations on receptor bonding are carried out on partly purified membrane fractions of bovine AC with radioactive angiotensin II in an assay volume of 0.25 ml, which specifically contains the partly purified membranes (50-80 μg), 3H-angiotensin II (3-5 nM), test buffer solution (50 mM Tris, pH 7.2), 5 mM MgCl2 and the substances to be investigated. After an incubation time of 60 minutes at room temperature, the non-bonded radioactivity of the samples is separated off by means of a moistened glass fibre filter (Whatman GF/C) and, after the protein has been washed with ice-cold buffer solution (50 mM Tris/HCl, pH 7.4, 5% PEG 6000), the bonded radioactivity is measured by spectrophotometry in a scintillation cocktail. The raw data were analysed for Ki and IC50 values by computer programs (Ki : IC50 values corrected for the radioactivity used; IC50 values: concentration at which the substance under investigation causes 50% inhibition of the specific bonding of the radio ligand).

[2] = system: angiotensin II-infused rats; assay: Blood pressure measurements on angiotensin II-infused rats; assay type: in vivo, Male Wistar rats; details: angiotensin II-infused rats (0.3 μg/kg/minute), anaesthetised; dose 0.1 mg/kg p.o.
Experimental: Male Wistar rats (Moellegaard, Copenhagen, Denmark) with a body weight of 300-350 g are anaesthetised with thiopental (100 mg/kg i.p.). After tracheotomy, a catheter for blood pressure measurement is inserted into the femoral artery and a catheter for angiotensin II infusion and a catheter for administration of the substance are inserted into the femoral veins. After administration of the ganglion blocker pentolinium (5 mg/kg i.v.), the angiotensin II infusion (0.3 μg/kg/minute) is started. As soon as the blood pressure values have reached a stable plateau, the test substances are administered either intravenously, or orally as a suspension or solution in 0.5% of tylose. The changes in blood pressure under the influence of the substance are shown as the mean values ±SEM in the table.

SMILES	IC50 [1] [nM]	Ki (angiotensin II receptor) [nM]	inhibition at 1 µM (smooth muscle cells) [%]	ΔP (change in blood pressure) [2] [mm Hg]
CCCCc1nc2cccnc2n1Cc1ccc(S(=O)(=O)N2CCCCC2C(=O)O)cc1Cl (racemic) [Example 2, rac-4-[{2-Butyl-imidazo[4,5-b]pyridin}-3-yl]methyl-3-chlorobenzenesulphonyl-N-(2-carboxy)piperidinide]	326	1000	40	
CCCCc1nc2cccnc2n1Cc1ccc(S(=O)(=O)N2CCC[C@H]2C(=O)O)cc1Cl [Example 5]	40	550	70	
COC(=O)[C@@H]1CCCN1S(=O)(=O)c1ccc(Cn2c(C3CC3)nc3c(C)ccnc32)c(Cl)c1 [Example 19]	6			
COC(=O)[C@@H]1CCCN1S(=O)(=O)c1ccc(Cn2c(C3CC3)nc3c(C)cc(C)nc32)c(Cl)c1 [Example 31]	4			-62

Continued, in another order:

IC50 [1] [nM]	Ki (angiotensin II receptor) [nM]	SMILES	inhibition at 1 µM (smooth muscle cells) [%]	ΔP (change in blood pressure) [2] [mm Hg]
6		CCc1nc2c(C)cc(C)nc2n1Cc1ccc(S(=O)(=O)N2CCC[C@H]2C(=O)OC)cc1Cl [Example 20, S-4-[[2-Ethyl-imidazo[4,5-b]5,7-dimethyl-pyridin]-3-yl]methyl-3-chloro-benzenesulphonyl-N-(2-methoxy-carbonyl)pyrrolidinide]		-48
3		Cc1cc(C)c2nc(C3CC3)n(Cc3ccc(S(=O)(=O)N4CCC[C@H]4C(=O)O)cc3Cl)c2n1 [Example 39]		-32
3		CCc1nc2c(C)cc(C)nc2n1Cc1ccc(S(=O)(=O)N2CCC[C@H]2C(=O)O)cc1Cl [Example 41]		
